Common to all, as to format: biochemical
The target in one assay is T1, JAK3 (Homo sapiens, UniProt P52333).
T1 construct: purchased Invitrogen Corporation, Madison, Wis; PV3855
T1 sequence (P52333 1-1124): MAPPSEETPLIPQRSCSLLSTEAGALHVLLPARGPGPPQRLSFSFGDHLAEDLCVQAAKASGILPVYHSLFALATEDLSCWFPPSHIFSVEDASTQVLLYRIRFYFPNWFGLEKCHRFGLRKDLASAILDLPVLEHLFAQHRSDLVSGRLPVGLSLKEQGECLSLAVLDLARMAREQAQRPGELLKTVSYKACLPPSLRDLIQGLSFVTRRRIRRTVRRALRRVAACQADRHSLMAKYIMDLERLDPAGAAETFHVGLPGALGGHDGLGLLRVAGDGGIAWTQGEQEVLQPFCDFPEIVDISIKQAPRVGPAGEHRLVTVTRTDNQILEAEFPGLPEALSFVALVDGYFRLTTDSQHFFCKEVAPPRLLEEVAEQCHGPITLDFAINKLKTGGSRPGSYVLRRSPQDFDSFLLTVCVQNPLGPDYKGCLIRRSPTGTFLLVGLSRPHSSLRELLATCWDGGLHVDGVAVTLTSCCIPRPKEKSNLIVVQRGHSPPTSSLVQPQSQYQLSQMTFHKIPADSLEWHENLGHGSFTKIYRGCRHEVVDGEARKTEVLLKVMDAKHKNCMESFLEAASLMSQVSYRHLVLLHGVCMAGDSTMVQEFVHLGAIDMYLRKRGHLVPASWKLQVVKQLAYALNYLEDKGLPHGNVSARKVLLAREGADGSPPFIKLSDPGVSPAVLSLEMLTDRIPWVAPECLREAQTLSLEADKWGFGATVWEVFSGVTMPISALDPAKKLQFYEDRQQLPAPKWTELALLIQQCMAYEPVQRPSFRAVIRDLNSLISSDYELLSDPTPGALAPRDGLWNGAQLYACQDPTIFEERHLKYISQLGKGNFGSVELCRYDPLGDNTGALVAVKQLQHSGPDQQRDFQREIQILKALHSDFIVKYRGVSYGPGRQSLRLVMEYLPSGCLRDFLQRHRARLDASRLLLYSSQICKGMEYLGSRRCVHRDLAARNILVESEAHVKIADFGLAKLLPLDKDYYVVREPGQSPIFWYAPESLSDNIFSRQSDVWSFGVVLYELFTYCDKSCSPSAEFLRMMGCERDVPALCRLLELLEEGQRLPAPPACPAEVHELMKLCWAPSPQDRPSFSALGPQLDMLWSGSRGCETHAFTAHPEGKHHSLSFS
Put plainly: JAK enzymatic assay (peptide mobility shift), JAK3. The conditions noted are these: recombinant JAK3 1 nM, ATP 4 μM, 1 μM JAKtide peptide, 90 minutes.

The target of another assay is T2, JAK1 (Homo sapiens, UniProt P23458).
T2 construct: purchased Invitrogen Corporation, Madison, Wis; PV4775
T2 sequence (P23458 whole entry): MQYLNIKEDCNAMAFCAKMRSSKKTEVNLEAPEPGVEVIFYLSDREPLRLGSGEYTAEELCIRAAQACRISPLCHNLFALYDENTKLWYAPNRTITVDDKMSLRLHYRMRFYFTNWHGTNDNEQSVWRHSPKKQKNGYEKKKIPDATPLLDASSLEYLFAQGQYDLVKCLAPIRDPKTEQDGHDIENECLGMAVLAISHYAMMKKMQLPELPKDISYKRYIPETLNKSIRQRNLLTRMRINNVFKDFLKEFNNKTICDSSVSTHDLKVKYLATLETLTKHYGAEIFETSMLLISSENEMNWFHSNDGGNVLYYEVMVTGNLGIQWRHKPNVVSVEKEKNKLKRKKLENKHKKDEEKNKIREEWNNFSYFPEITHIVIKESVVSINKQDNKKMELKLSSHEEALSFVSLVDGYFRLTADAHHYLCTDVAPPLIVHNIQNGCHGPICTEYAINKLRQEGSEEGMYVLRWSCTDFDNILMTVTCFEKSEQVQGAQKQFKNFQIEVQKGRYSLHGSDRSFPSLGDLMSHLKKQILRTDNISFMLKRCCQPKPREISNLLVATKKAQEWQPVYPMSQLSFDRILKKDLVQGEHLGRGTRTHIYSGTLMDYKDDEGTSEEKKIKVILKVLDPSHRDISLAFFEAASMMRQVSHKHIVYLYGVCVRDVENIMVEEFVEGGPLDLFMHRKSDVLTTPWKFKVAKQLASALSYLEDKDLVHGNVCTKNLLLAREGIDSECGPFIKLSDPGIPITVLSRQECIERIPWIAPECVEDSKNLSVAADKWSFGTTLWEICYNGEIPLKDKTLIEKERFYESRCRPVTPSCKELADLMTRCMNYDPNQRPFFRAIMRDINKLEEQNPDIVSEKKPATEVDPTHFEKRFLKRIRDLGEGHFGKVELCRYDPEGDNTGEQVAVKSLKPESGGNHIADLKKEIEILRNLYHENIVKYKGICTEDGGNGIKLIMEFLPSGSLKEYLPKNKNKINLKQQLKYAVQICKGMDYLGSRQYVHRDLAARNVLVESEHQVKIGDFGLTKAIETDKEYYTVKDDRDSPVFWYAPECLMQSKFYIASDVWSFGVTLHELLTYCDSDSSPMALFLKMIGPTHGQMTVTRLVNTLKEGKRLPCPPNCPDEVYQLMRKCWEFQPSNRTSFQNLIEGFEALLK
Put plainly: JAK enzymatic assay (peptide mobility shift), JAK1. Particulars: recombinant JAK1 20 nM, ATP 40 μM, 1 μM IRS-1 peptide, 240 minutes. The method in brief:
(§1)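 Caliper mobility-shift assay of peptide phosphorylation (1 μM peptide) in pH 7.4 HEPES with MgCl2, BSA, Tween-20 and 2% DMSO. JAK1 used 20 nM enzyme, 40 μM ATP, IRS-1 peptide, 240 min; JAK2 used 2 nM, 4 μM ATP, JAKtide, 150 min; JAK3 used 1 nM, 4 μM ATP, JAKtide, 90 min. IC50s came from 11-point 4-parameter fits.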

The target in the next assay is T3, JAK2 (Homo sapiens, UniProt O60674).
T3 construct: purchased Invitrogen Corporation, Madison, Wis; PV4210
T3 sequence (O60674 whole entry): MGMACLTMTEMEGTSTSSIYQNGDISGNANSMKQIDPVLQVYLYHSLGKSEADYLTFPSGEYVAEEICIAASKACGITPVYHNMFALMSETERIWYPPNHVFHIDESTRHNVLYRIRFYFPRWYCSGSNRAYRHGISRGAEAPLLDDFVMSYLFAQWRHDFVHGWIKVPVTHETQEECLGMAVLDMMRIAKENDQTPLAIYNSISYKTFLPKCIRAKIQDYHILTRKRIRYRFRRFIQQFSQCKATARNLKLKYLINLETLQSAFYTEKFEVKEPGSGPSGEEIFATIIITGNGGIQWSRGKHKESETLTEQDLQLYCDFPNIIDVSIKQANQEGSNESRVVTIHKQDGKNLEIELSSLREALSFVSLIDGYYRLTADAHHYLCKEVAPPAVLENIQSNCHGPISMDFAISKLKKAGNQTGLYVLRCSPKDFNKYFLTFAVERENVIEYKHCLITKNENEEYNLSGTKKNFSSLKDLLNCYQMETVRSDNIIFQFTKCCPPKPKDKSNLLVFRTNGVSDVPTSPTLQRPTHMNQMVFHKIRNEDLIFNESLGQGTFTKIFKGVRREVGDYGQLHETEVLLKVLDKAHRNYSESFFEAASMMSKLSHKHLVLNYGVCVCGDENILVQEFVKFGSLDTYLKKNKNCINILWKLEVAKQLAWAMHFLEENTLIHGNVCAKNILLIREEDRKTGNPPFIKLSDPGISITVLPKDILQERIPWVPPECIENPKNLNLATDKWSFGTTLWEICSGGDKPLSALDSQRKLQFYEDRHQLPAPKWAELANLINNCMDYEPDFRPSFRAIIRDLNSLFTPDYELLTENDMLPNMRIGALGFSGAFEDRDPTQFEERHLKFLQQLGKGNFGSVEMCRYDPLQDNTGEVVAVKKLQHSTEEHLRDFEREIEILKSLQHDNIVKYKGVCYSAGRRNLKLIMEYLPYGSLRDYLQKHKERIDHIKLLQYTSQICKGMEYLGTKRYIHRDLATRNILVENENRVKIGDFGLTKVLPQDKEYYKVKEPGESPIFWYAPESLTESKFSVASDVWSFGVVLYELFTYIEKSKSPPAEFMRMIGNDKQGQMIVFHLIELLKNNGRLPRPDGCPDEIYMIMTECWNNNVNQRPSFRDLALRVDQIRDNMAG
Put plainly: JAK enzymatic assay (peptide mobility shift), JAK2. The conditions noted are these: recombinant JAK2 2 nM, ATP 4 μM, 1 μM JAKtide peptide, 150 minutes. The method in brief: as §1

Molecules are shown by their SMILES.

In the case of `CN(c1ncnc2[nH]ccc12)[C@H]1CC[C@@H](CS(=O)(=O)NCC2CC2)CC1` [Example 55, N-(cyclopropylmethyl)-1-{cis-4-[methyl(7H-pyrrolo[2,3-d]pyrimidin-4-yl)amino]cyclohexyl}-methanesulfonamide], the values for the IC50 at JAK3, on JAK1 and on JAK2 were 201 nM, 11.4 nM and 34.1 nM, respectively.

As to `CN(c1ncnc2[nH]ccc12)[C@H]1CC[C@H](CS(=O)(=O)NC2(Cc3ccccc3)CCC2)CC1` [Example 44, N-(1-benzylcyclobutyl)-1-{trans-4-[methyl(7H-pyrrolo-[2,3-d]pyrimidin-4-yl)amino]-cyclohexyl}methane-sulfonamide], the IC50 (usually the midpoint of a concentration-inhibition curve) came to 641 nM at JAK3, 15.1 nM on JAK1 and 112 nM at JAK2.

Turning to `CN(c1ncnc2[nH]ccc12)[C@H]1CC[C@H](CS(=O)(=O)NC[C@H]2CCCO2)CC1` [Example 47, 1-{trans-4-[methyl(7H-pyrrolo[2,3-d]pyrimidin-4-yl)amino]cyclohexyl}-N-[(2R)-tetrahydrofuran-2-ylmethyl]-methanesulfonamide], the IC50 at JAK3 was found to be 1060 nM; at JAK1 it was 16.1 nM; on JAK2, 174 nM.

Turning to `CN(c1ncnc2[nH]ccc12)[C@H]1CC[C@H](CS(=O)(=O)NCCc2ccc(Cl)c(Cl)c2)CC1` [Example 42, N-[2-(3,4-dichlorophenyl)-ethyl]-1-{trans-4-[methyl-(7H-pyrrolo[2,3-d]pyrimidin-4-yl)amino]cyclohexyl}-methanesulfonamide], the figures for the IC50 at JAK3, at JAK1 and at JAK2 were 427 nM, 14.5 nM and 55.7 nM, respectively.

For `CN(c1ncnc2[nH]ccc12)[C@H]1CC[C@H](CS(=O)(=O)N[C@@H]2CCC[C@@H]2c2ccc(F)cc2)CC1` [Example 46, N-[(1R,2R)-2-(4-fluoro-phenyl)cyclopentyl]-1-{trans-4-[methyl(7H-pyrrolo[2,3-d]pyrimidin-4-yl)amino]cyclohexyl}-methanesulfonamide], the IC50 on JAK3 worked out at 355 nM; at JAK1, 15.6 nM; on JAK2, 18.4 nM.

`Cc1ccc(CCNS(=O)(=O)C[C@H]2CC[C@H](N(C)c3ncnc4[nH]ccc34)CC2)c(C)c1` [Example 4, N-[2-(2,4-dimethylphenyl)-ethyl]-1-{trans-4-[methyl-(7H-pyrrolo[2,3-d]pyrimidin-4-yl)amino]cyclohexyl}-methanesulfonamide]: the values for the IC50 at JAK3, on JAK1 and on JAK2 were 139 nM, 3.01 nM and 9.17 nM, respectively.

`CC(C)c1ccc(CCNS(=O)(=O)C[C@H]2CC[C@H](N(C)c3ncnc4[nH]ccc34)CC2)c(F)c1` [Example 38, N-[2-(2-fluoro-4-isopropylphenyl)ethyl]-1-{trans-4-[methyl(7H-pyrrolo[2,3-d]pyrimidin-4-yl)amino]cyclohexyl}-methanesulfonamide]: the IC50 at JAK3 amounted to 145 nM; on JAK1 it was 9.13 nM; at JAK2, 55.4 nM.

Take `Cc1cc(C)nc(CNS(=O)(=O)C[C@H]2CC[C@H](N(C)c3ncnc4[nH]ccc34)CC2)n1` [Example 51, N-[(4,6-dimethylpyrimidin-2-yl)methyl]-1-{trans-4-[methyl(7H-pyrrolo[2,3-d]-pyrimidin-4-yl)amino]cyclohexyl}-methanesulfonamide]: the IC50 at JAK3 is 237 nM; at JAK1, 23.3 nM; on JAK2 it was 20.2 nM.

For the compound `CN(c1ncnc2[nH]ccc12)[C@H]1CC[C@H](CS(=O)(=O)NCCc2ccc(C(F)(F)F)cc2)CC1` [Example 12, 1-{trans-4-[methyl(7H-pyrrolo[2,3-d]pyrimidin-4-yl)amino]cyclohexyl}-N-{2-[4-(trifluoromethyl)-phenyl]ethyl}-methanesulfonamide], the figures for the IC50 at JAK3, on JAK1 and on JAK2 were 511 nM, 16.5 nM and 55.5 nM, respectively.

In the case of `CN(c1ncnc2[nH]ccc12)[C@H]1CC[C@H](CS(=O)(=O)N[C@H]2C[C@@H]2c2ccccc2)CC1` [Example 32, 1-{trans-4-[methyl(7H-pyrrolo[2,3-d]pyrimidin-4-yl)amino]cyclohexyl}-N-[(1S,2R)-2-phenylcyclopropyl]-methanesulfonamide], the IC50 turned out to be 144 nM on JAK3, 4.34 nM on JAK1 and 23.6 nM on JAK2.

As to `CN(c1ncnc2[nH]ccc12)[C@H]1CC[C@H](CS(=O)(=O)NCC(F)(F)c2ccccc2)CC1` [Example 6, N-(2,2-difluoro-2-phenyl-ethyl)-1-{trans-4-[methyl-(7H-pyrrolo[2,3-d]pyrimidin-4-yl)amino]cyclohexyl}-methanesulfonamide], the IC50 on JAK3 was 101 nM; on JAK1 it was 4.22 nM; on JAK2, 11.8 nM.

`COc1ccc(NS(=O)(=O)C[C@H]2CC[C@H](N(C)c3ncnc4[nH]ccc34)CC2)cn1` [Example 28, N-(6-methoxypyridin-3-yl)-1-{trans-4-[methyl(7H-pyrrolo[2,3-d]pyrimidin-4-yl)amino]cyclohexyl}methane-sulfonamide]: the IC50 on JAK3 came to 121 nM; at JAK1, 8.72 nM; at JAK2, 22.2 nM.

Consider `CN(c1ncnc2[nH]ccc12)[C@H]1CC[C@H](CS(=O)(=O)NCCc2ccc(Cl)cc2)CC1` [Example 31, N-[2-(4-chlorophenyl)ethyl]-1-{trans-4-[methyl(7H-pyrrolo[2,3-d]pyrimidin-4-yl)amino]cyclohexyl}-methanesulfonamide], for which the IC50 was 154 nM on JAK3, 3.67 nM on JAK1 and 19 nM on JAK2.

For the compound `CN(c1ncnc2[nH]ccc12)[C@H]1CC[C@@H](CS(=O)(=O)NCc2ccccc2)CC1` [Example 54, N-benzyl-1-{cis-4-[methyl(7H-pyrrolo[2,3-d]pyrimidin-4-yl)amino]cyclohexyl}-methanesulfonamide], the IC50 on JAK3 turned out to be 162 nM; on JAK1 it was 19.3 nM; on JAK2 it was 54.2 nM.

`C[C@H](O)CNS(=O)(=O)C[C@H]1CC[C@H](N(C)c2ncnc3[nH]ccc23)CC1` [Example 49, N-[(2S)-2-hydroxypropyl]-1-{trans-4-[methyl(7H-pyrrolo[2,3-d]pyrimidin-4-yl)amino]cyclohexyl}-methanesulfonamide]: the IC50 on JAK3 came out at 526 nM; at JAK1 it was 21.4 nM; at JAK2, 64.2 nM.

As to `Cc1cnc(CNS(=O)(=O)C[C@H]2CC[C@H](N(C)c3ncnc4[nH]ccc34)CC2)cn1` [Example 45, N-[(5-methylpyrazin-2-yl)methyl]-1-{trans-4-[methyl(7H-pyrrolo[2,3-d]-pyrimidin-4-yl)amino]cyclohexyl}-methanesulfonamide], the values for the IC50 on JAK3, on JAK1 and at JAK2 were 490 nM, 15.3 nM and 49.7 nM, respectively.

Take `CN(c1ncnc2[nH]ccc12)[C@H]1CC[C@H](CS(=O)(=O)NCCC(F)=C(F)F)CC1` [Example 48, 1-{trans-4-[methyl(7H-pyrrolo[2,3-d]pyrimidin-4-yl)amino]cyclohexyl}-N-(3,4,4-trifluorobut-3-en-1-yl)methanesulfonamide]: the IC50 on JAK3 worked out at 267 nM; on JAK1, 19.6 nM; at JAK2, 66 nM.

Turning to `CN(CCO)S(=O)(=O)C[C@H]1CC[C@H](N(C)c2ncnc3[nH]ccc23)CC1` [Example 17, N-(2-hydroxyethyl)-N-methyl-1-{trans-4-[methyl-(7H-pyrrolo[2,3-d]pyrimidin-4-yl)amino]cyclohexyl}-methanesulfonamide], the figures for the IC50 on JAK3, on JAK1 and at JAK2 were 332 nM, 16.3 nM and 44.2 nM, respectively.

For the compound `CN(c1ncnc2[nH]ccc12)[C@H]1CC[C@H](CS(=O)(=O)Nc2ccc(CC#N)cc2)CC1` [Example 20, N-[4-(cyanomethyl)phenyl]-1-{trans-4-[methyl(7H-pyrrolo[2,3-d]pyrimidin-4-yl)amino]cyclohexyl}methane-sulfonamide], the IC50 at JAK3 amounted to 96.1 nM; on JAK1, 9.58 nM; on JAK2, 38.1 nM.

The record behind these values is patent US8372854B2, “Pyrrolo[2,3-D]pyrimidine compounds” (Pfizer Inc., priority 2009, dated 2013).
